Data reported in PubChem BioAssay AID1996.
≈ marks a conversion by molar mass, not a printed value.

Conditions: buffer; pH 7.4; 200.0 µM

Row | Compound | solubility kinetic
1 | Cc1ccc(OS(=O)(=O)c2cn(C)c(=O)n(C)c2=O)cc1C | > 48.7 µg/mL
2 | O=C(Nc1cccc(C(=O)Nc2ccc(F)cc2F)c1)c1ccccc1 | 0.4 µg/mL (≈ 1.14 µM)
3 | COc1ccc(-c2cc3ccccc3[nH]2)cc1 | 1.4 µg/mL (≈ 6.27 µM)
4 | CN(C)S(=O)(=O)c1cccc(NC(=O)c2ccc(NS(=O)(=O)c3cccs3)cc2)c1 | 59.5 µg/mL (≈ 128 µM)
5 | COc1ccc(N2CCN(c3nccs3)CC2)cc1 | > 41.3 µg/mL
6 | CCOc1ccc(Cc2noc3c2C(=O)CC(C)(C)C3)cc1OCC | 46.4 µg/mL (≈ 135 µM)
7 | Cc1ccc(CN2CCC(CO)(CC3CCCCO3)CC2)o1 (configuration not stated) | > 46.1 µg/mL
8 | O=C(CN1CCCC1)NCC(=O)Nc1ccc(F)cc1 | > 41.9 µg/mL
9 | Cc1ccc(S(=O)(=O)Nc2ccc(F)cc2)cc1C(=O)N1CCOCC1 | > 56.8 µg/mL
10 | COc1ccccc1NC(=O)c1ccc(COc2ccccc2OC)cc1 | 3.1 µg/mL (≈ 8.53 µM)
11 | O=C(O)c1cccc([N+](=O)[O-])c1C(=O)Nc1cccc2ccccc12 | 39.5 µg/mL (≈ 117 µM)
12 | CN1CCN(C(=O)CCC(=O)O)CC1 | 26.5 µg/mL (≈ 132 µM)
13 | COc1ccccc1CNC(=O)c1ccc(Cl)c(S(=O)(=O)N2CCCC2)c1 | 17.9 µg/mL (≈ 43.8 µM)
14 | Cl.Fc1ccccc1CNC1CN2CCC1CC2 (configuration not stated) | > 46.1 µg/mL
15 | CCN(C(=O)COC(=O)c1ccc2c(c1)OCO2)c1ccccc1 | > 49.1 µg/mL
16 | Cc1ccccc1OC(C)C(=O)NCCC1=CCCCC1 (configuration not stated) | 19.6 µg/mL (≈ 68.2 µM)
17 | CC(C1CC1)N(C(=O)c1ccccc1[N+](=O)[O-])c1ccccc1 (configuration not stated) | 13 µg/mL (≈ 41.9 µM)
18 | CCCOc1ccc(N2C(=O)CC(NCC(=O)OCC)C2=O)cc1 (configuration not stated) | > 50.2 µg/mL
19 | COC(=O)CNC(=O)/C=C/c1cc(Br)ccc1OC | 38.1 µg/mL (≈ 116 µM)
20 | O=C(Cc1ccc(Cl)cc1)NC1CCS(=O)(=O)C1 (configuration not stated) | > 43.2 µg/mL
21 | CCN1CCN(Cc2cc(=O)oc3ccc(C)cc23)CC1 | > 43 µg/mL
22 | CCCCN(CCCC)CCCOC(=O)c1ccc(N)cc1 | > 46 µg/mL
23 | O=C(COc1ccccc1)Nc1cc2c3c(c1)CC(=O)N3CCC2 | > 48.4 µg/mL
24 | CC1(c2ccccc2Cl)NC(=O)N(CC(=O)Nc2ccc(N3CCOCC3)cc2)C1=O (configuration not stated) | > 66.4 µg/mL

Row | Compound | solubility kinetic
25 | COc1ccc2ccccc2c1CN(C)Cc1ccccc1.O=C(O)C(=O)O | 53.1 µg/mL
26 | O=[N+]([O-])c1ccc(N2CCCC2)nc1N1CCCC1 | 21.4 µg/mL (≈ 81.6 µM)
27 | Cc1ccc(-c2nc3ccccc3[nH]c2=O)cc1 | 1 µg/mL (≈ 4.23 µM)
28 | Cc1ccc(C(=O)NCCc2ccc(F)cc2)s1 | 5.6 µg/mL (≈ 21.3 µM)
29 | O=C(CCc1ccccc1)NCC1(c2ccccc2)CCCC1 | 23.8 µg/mL (≈ 77.4 µM)
30 | Cc1c(C)n(Cc2ccccc2)c2ncnc(NCCCO)c12 | < 0.2 µg/mL
31 | O=C(c1ccc(=O)oc1)N1CCC(C(O)(c2ccccc2)c2ccccc2)CC1 | 57.3 µg/mL (≈ 147 µM)
32 | O=C(CN1C(=O)COc2ccccc21)NC1CCCC1 | 32.9 µg/mL (≈ 120 µM)
33 | Cc1c2c(n3c(nc4ccccc43)c1C#N)N(CCN(C)C)CC2 | > 47.9 µg/mL
34 | O=C1S/C(=C\c2cccs2)C(=O)N1c1ccc(O)cc1 | < 0.6 µg/mL
35 | CC(NC(=O)c1ccco1)C(=O)OC(C)C(=O)NCc1ccccc1 (configuration not stated) | 46.3 µg/mL (≈ 134 µM)
36 | O=C(NC1CCSc2ccccc21)c1ccccc1F (configuration not stated) | 12.4 µg/mL (≈ 43.2 µM)
37 | Cc1ccc(NC(=O)CN2C(=O)NC3(CCCc4ccccc43)C2=O)c([N+](=O)[O-])c1 (configuration not stated) | 36.5 µg/mL (≈ 89.4 µM)
38 | C=Cn1cc[n+](CC(=O)c2cccs2)c1.[Br-] | > 44.9 µg/mL
39 | COc1ccccc1N1C(=O)C(Cl)=C(N2CCCC2)C1=O | 9.4 µg/mL (≈ 30.6 µM)
40 | O=C(CN1CCOCC1)NCCc1ccccc1 | > 37.2 µg/mL
41 | CCCOP(=O)(c1ccc(N(C)C)cc1)C(O)c1cc(OC)ccc1OC (configuration not stated) | > 59 µg/mL
42 | CC1CC(C)CN(C(=O)COC(=O)CCC(=O)c2cccs2)C1 (configuration not stated) | > 50.6 µg/mL
43 | COc1ccc(NC(=O)CCCC(=O)O)cc1Cl | > 40.8 µg/mL
44 | CCN(CC)CCCNc1nc(C)cc(COC)c1C#N | > 43.6 µg/mL
45 | Cc1nc2ccccc2c(=O)n1CCCN1CCOCC1 | > 43.1 µg/mL
46 | CN1CCC(N(CCc2ccccc2)C(=O)CCC(=O)O)CC1 | > 47.8 µg/mL
47 | CN(C)CC#CCC(O)(c1ccccc1)C1CCCCC1 (configuration not stated) | 42.7 µg/mL (≈ 150 µM)
48 | CSc1nsc(SC)c1C(=O)O | > 33.2 µg/mL

Row | Compound | solubility kinetic
49 | O=C(NN=Cc1ccc(O)cc1)c1ccccc1NS(=O)(=O)c1cccs1 | > 60.2 µg/mL
50 | COc1ccc(OC)c(/C=C2\NC(=O)NC2=O)c1 | 9.5 µg/mL (≈ 38.3 µM)
51 | CCc1ccc2c(CN3CCC(C(=O)OC)CC3)cc(=O)oc2c1 | > 49.4 µg/mL
52 | COc1ccc(CCN=Cc2ccc(O)cc2)cc1OC | 40.1 µg/mL (≈ 141 µM)
53 | COCC(C)n1c(SCC(=O)N2CCOCC2)nc2ccccc2c1=O (configuration not stated) | > 56.6 µg/mL
54 | Cc1ccc(C(=O)NCN2CCN(c3ccc(F)cc3)CC2)cc1 | > 49.1 µg/mL
55 | O=C(Nc1cc(S(=O)(=O)N2CCOCC2)ccc1N1CCOCC1)c1ccccc1Cl | > 69.9 µg/mL
56 | COc1ccc(C(CC(=O)NCc2ccccc2)C(C)C)cc1 (configuration not stated) | 10.1 µg/mL (≈ 32.4 µM)
57 | CCN(C(=O)c1cc(Cl)ccc1Cl)C1CCS(=O)(=O)C1 (configuration not stated) | > 50.4 µg/mL
58 | O=C(CNC(=O)c1ccc(=O)[nH]c1)Nc1ccc(F)c(F)c1 | > 46.1 µg/mL
59 | Cc1cc(NC(=O)CCCn2cnc([N+](=O)[O-])n2)no1 | > 42 µg/mL
60 | CC1CCCC(C)N1C(=O)COC(=O)/C=C/c1ccco1 (configuration not stated) | 10 µg/mL (≈ 34.3 µM)
61 | Cc1cccc(C)c1OCC(O)CNC(C)c1ccccc1.Cl (configuration not stated) | > 50.4 µg/mL
62 | O=c1nc(-c2ccccc2Cl)c2cc(F)ccc2[nH]1 | 38.9 µg/mL (≈ 142 µM)
63 | CC1(C)CC(=O)C2=C(C1)NC(=O)NC2c1ccccc1Cl (configuration not stated) | 45.6 µg/mL (≈ 150 µM)
64 | CCCS(=O)(=O)N1CCCC(C(=O)NCC(OC)OC)C1 (configuration not stated) | 45.2 µg/mL (≈ 140 µM)
65 | CC1Cc2ccccc2N1C(=O)c1ccc(F)c(S(=O)(=O)N2CCOCC2)c1 (configuration not stated) | 50.3 µg/mL (≈ 124 µM)
66 | CC1CCN(CCC(=O)N/N=C/c2ccc([N+](=O)[O-])cc2)CC1 | > 47.8 µg/mL
67 | Cc1noc(C)c1CNCc1ccccc1.O=C(O)C(=O)O | > 45.9 µg/mL
68 | Cl.O=C1C2CCCC1C(N1CCCCC1)CC2 (configuration not stated) | > 38.7 µg/mL
69 | CC1CCC(NC(=O)c2cccn2C)CC1 (configuration not stated) | > 33 µg/mL
70 | CCOc1ccc(C(=O)CCC(=O)N2CCN(c3ccc(O)cc3)CC2)cc1 | 16.6 µg/mL (≈ 43.4 µM)
71 | COc1ccc(CC(=O)Nc2nc3ccccc3[nH]2)cc1 | 0.7 µg/mL (≈ 2.49 µM)

The remaining lines, values ahead:

Row | solubility kinetic | Compound
72 | 4.8 µg/mL (≈ 15.4 µM) | O=C(NCCc1ccc(Cl)cc1)c1ccc2nccnc2c1
73 | > 37 µg/mL | O=C(NCc1cccc(Cl)c1)c1ccncc1
74 | < 0.7 µg/mL | O=C(CSC(=S)N1CCSCC1)c1ccc(Cl)cc1
75 | 34.3 µg/mL (≈ 108 µM) | CCCS(=O)(=O)C/C(N)=N/OC(=O)c1ccc(Cl)cc1
76 | 3 µg/mL (≈ 8.31 µM) | CC(=O)NC(c1ccc(Cl)cc1Cl)c1ccc2cccnc2c1O (configuration not stated)
77 | > 46 µg/mL | O=C(CCNC(=O)c1ccc(Cl)cc1)NCc1ccco1
78 | 32.9 µg/mL (≈ 117 µM) | Cc1ccc(C(=O)Nc2cccnc2Cl)cc1Cl
79 | 9.2 µg/mL (≈ 34.9 µM) | O=C(c1ccccc1)N1CCn2c1nc1ccccc12
80 | < 0.3 µg/mL | C/C(=N/OC(=O)CC(C)C)c1cc(-c2ccc(Cl)cc2)no1
81 | > 48.7 µg/mL | Cc1c(C(=O)C(=O)NCCCn2ccnc2)c2ccccc2n1C
82 | 20 µg/mL (≈ 82.5 µM) | Cc1nc(Oc2ccccc2)c2ccsc2n1
83 | > 51.4 µg/mL | Cc1ccc(OCCSc2nc3ccccc3n2CC(=O)O)cc1
84 | 5.2 µg/mL (≈ 23.9 µM) | Cc1nc(N)ncc1Sc1ccccc1
85 | 27.8 µg/mL (≈ 120 µM) | CN(Cc1ccccc1)c1ncc(C=O)s1
86 | > 43.3 µg/mL | CC(C)(C)c1ccc(C(=O)NCC(=O)N2CCCC2)cc1
87 | > 41.9 µg/mL | Cc1nn(CC(=O)O)c(C)c1NC(=O)c1cccs1
88 | 43 µg/mL (≈ 143 µM) | O=S(=O)(Nc1ccccc1O)c1cccc2cccnc12
89 | > 44.3 µg/mL | O=C(NCCc1ccc(Cl)cc1Cl)c1cccnc1
90 | > 49.7 µg/mL | O=C(Nc1cccnc1)c1cccc(S(=O)(=O)N2CCCC2)c1
91 | > 48.7 µg/mL | CCNC(=O)c1ccc(N(C)S(=O)(=O)c2cccs2)cc1
92 | 29.6 µg/mL (≈ 110 µM) | Cc1ccc(NC(=O)C(=O)NCc2ccncc2)cc1
93 | < 0.3 µg/mL | O=C(Nc1ccccn1)c1sc2cccc(F)c2c1Cl
94 | 1.4 µg/mL (≈ 4.55 µM) | O=C(NC(=S)Nc1ccc2ncccc2c1)c1ccccc1
95 | > 45.5 µg/mL | CC(=O)NC(CC(=O)Nc1nc(C)cs1)c1ccccc1 (configuration not stated)
96 | > 50 µg/mL | CC(=O)c1cccc(-n2c(CCC(=O)O)ccc2-c2ccccc2)c1
97 | > 39.7 µg/mL | CN(C)C(CNC(=O)c1cccs1)c1ccco1 (configuration not stated)

Row | solubility kinetic | Compound
98 | > 53 µg/mL | COc1ccc(/C=C/C(=O)N2CCN(c3ccccn3)CC2)cc1OC
99 | > 40.7 µg/mL | Cc1cccc(C)c1NC(=S)NCc1ccncc1
100 | 0.7 µg/mL (≈ 2.67 µM) | Cc1cccnc1NC(=O)Nc1ccc(Cl)cc1
101 | > 34.5 µg/mL | CCC(C(=O)Nc1ccon1)c1ccccc1 (configuration not stated)
102 | 1.2 µg/mL (≈ 3.69 µM) | Fc1ccc(NC(=S)N2CCc3[nH]c4ccccc4c3C2)cc1
103 | 2.6 µg/mL (≈ 9.65 µM) | COc1ccccc1NCC(=O)c1ccc(C)c(C)c1
104 | < 0.3 µg/mL | COc1ccc2nc(NC(=O)c3cccs3)sc2c1
105 | > 49.2 µg/mL | Cc1ccc(NCC(=O)N/N=C/c2cc(O)ccc2[N+](=O)[O-])cc1
106 | > 46.6 µg/mL | O=C(NC1CC1)c1cccc(S(=O)(=O)N2CCOCC2)c1
107 | > 48.5 µg/mL | CC(C)(C)OC(=O)NC(CC(=O)OCc1ccccc1)C(=O)O (configuration not stated)
108 | > 36.9 µg/mL | O=C(N/N=C/c1ccncc1)NC1CCCCC1
109 | > 46.9 µg/mL | CCc1nc2ccccc2c(C(=O)OCC(=O)NC2CC2)c1C
110 | > 50.9 µg/mL | Cc1ccc(OCC(=O)N2CCN(C(=O)c3ccncc3)CC2)cc1
111 | 2 µg/mL (≈ 6.02 µM) | CC1CCCC(NC(=O)CCn2c(=S)oc3ccccc32)C1C (configuration not stated)
112 | > 41.3 µg/mL | NC(=O)C1CCN(C(=O)NC(=O)c2ccccc2)CC1
113 | < 0.2 µg/mL | c1ccc(-c2ccc(-c3ccncn3)cc2)cc1
114 | 10.3 µg/mL (≈ 45.3 µM) | Cc1cc(C(=O)Nc2ccc(C#N)cc2)on1
115 | 41.3 µg/mL (≈ 119 µM) | CCCNC(=S)N1CCC(C(=O)c2ccc3c(c2)OCCO3)CC1
116 | 2.1 µg/mL (≈ 7.09 µM) | CC(=O)c1cccc(NC(=O)c2cc(-c3ccco3)on2)c1
117 | > 46.6 µg/mL | CCc1cccc(NC(=O)C2CCCN(c3cnccn3)C2)c1 (configuration not stated)
118 | 15.6 µg/mL (≈ 56.4 µM) | Cc1ccc(Cl)c(OCC(=O)Nc2cccnc2)c1
119 | 2.9 µg/mL (≈ 9.05 µM) | CN(C(=O)c1ccc(NC(=O)c2ccco2)cc1)c1ccccc1
120 | > 29.1 µg/mL | C/C(=N\NC(N)=S)c1cccnc1
121 | > 46.8 µg/mL | COc1cccc(C(=O)NCC(=O)N/N=C/c2cccnc2)c1
122 | 24.6 µg/mL (≈ 77.3 µM) | Nc1c(C(=O)CSc2ccccn2)c(=O)[nH]c(=O)n1C1CC1
